Values joined by “and” are separate entries in the source; they are usually repeats but may differ in a detail not shown here. Identical values can stand only once. Like-named read-outs stand apart in the source and are kept apart here.
Assay: PK characteristics in humans (plasma, LC/MS/MS)
Assay type: in vivo, human
Settings: for accumulation: cancer patients; for dose dependence of Cmax and AUC: 10-400 mg QD and 400 mg BID; for half-life: read-out: T1/2 (converted)
Procedure: A pharmaceutical formulation of the disclosure comprising the active ingredient N-(3-(2-(6-amino-4-(trifluoromethyl)pyridin-3-yl)-4-morpholinopyrido[3,2-d]pyrimidin-6-yl)-2-fluorophenyl)-3-fluoropropane-1-sulfonamide was evaluated for safety/tolerability and preliminary efficacy in eligible human subjects with advanced solid tumors, and the pharmacokinetic (PK) profile of the active ingredient was investigated for each subject. Eligibility criteria for inclusion in this study included:
Fifteen eligible patients were enrolled in total daily dose levels ranging from 10-800 mg per day of the active ingredient, provided as 10-mg, 20-mg, 80-mg and 120-mg tablets for oral administration. Dose escalation is ongoing. All study medication supplies were provided by Asana BioSciences, LLC (Bridgewater, N.J.). The tablets were administered orally every 12-24 hours on an empty stomach (either 1 hour before or 2 hours after a meal or snack) with approximately 240 mL of water. On study days in which there was a single plasma PK sample taken, the subject was instructed to fast for at least 2 hours prior to collection of the PK sample. On study days with multiple plasma PK samples taken, the subject was instructed to fast overnight (at least 8 hours prior to study drug administration) and remain fasting for 2 hours after study drug administration. The date and time of the dose(s) taken prior to or on PK sampling days were collected by the study site or catalogued via a diary card provided to the subject.
An ultra performance liquid chromatographic method was used for the determination of the active ingredient in human EDTA K2 plasma. This method was validated over an analytical range of 0.5 to 500 ng/mL. Calibration standards (CS) and quality control (QC) samples at three or four levels of concentrations were prepared fresh from the appropriate working solutions which were stored at −20° C. The human EDTA K2 plasma used for the preparation of CS and QC samples was obtained from Bioreclamation (Westbury, Pa., USA) and analyzed to determine possible interference with the analyte or the internal standard, and no significant interference was observed. The following parameters were used to determine analyte levels in the plasma samples: […]

[1] = Day 1, 40 mg, individual subjects
[2] = Day 1, 80 mg, individual subjects
[3] = Day 1, 240 mg, individual subjects
[4] = Day 1, 400 QD mg, individual subjects
[5] = Day 1, 400 bid mg, individual subjects
[6] = Day 15, 40 mg, individual subjects
[7] = Day 15, 80 mg, individual subjects
[8] = Day 15, 240 mg, individual subjects
[9] = Day 15, 400 QD mg, individual subjects
[10] = human subjects, listed as active ingredient

Question: Which results are given for `Nc1cc(C(F)(F)F)c(-c2nc(N3CCOCC3)c3nc(-c4cccc(NS(=O)(=O)CCCF)c4F)ccc3n2)cn1` [CMPD A, N-(3-(2-(6-amino-4-(trifluoromethyl)pyridin-3-yl)-4-morpholinopyrido[3,2-d]pyrimidin-6-yl)-2-fluorophenyl)-3-fluoropropane-1-sulfonamide]?
Answer: accumulation (BID administration): ~3 fold; AUC0-24 [1]: 1400 ng·h/mL and 5510 ng·h/mL; Cmax [1]: 96.2 ng/mL and 289 ng/mL; T1/2 [1]: 17.6 h; AUC0-24 [2]: 8090 ng·h/mL and 4010 ng·h/mL; Cmax [2]: 300 ng/mL; Tmax [2]: 24 h; AUC0-24 [3]: 9560 ng·h/mL and 4300 ng·h/mL; Cmax [3]: 744 ng/mL and 295 ng/mL; T1/2 [3]: 23.9 h and 11.0 h; AUC0-24 [4]: 3200 ng·h/mL and 26700 ng·h/mL; Cmax [4]: 264 ng/mL and 1870 ng/mL; T1/2 [4]: 15.6 h; AUC0-24 [5]: 20400 ng·h/mL; Cmax [5]: 1430 ng/mL; T1/2 [5]: 15.0 h; RAUCtau (Day 15, 10 mg, n=1): 1.5; RCmax (Day 15, 10 mg, n=1): 1.3; RAUCtau (Day 15, 20 mg, n=1): 2.1; RCmax (Day 15, 20 mg, n=1): 1.5; AUC0-24 [6]: 2580 ng·h/mL and 9190 ng·h/mL; Cmax [6]: 173 ng/mL and 523 ng/mL; RAUCtau [6]: 1.9 and 2.3; RCmax [6]: 1.8, 1.8; T1/2 [6]: 22.5 h and 47.8 h; AUC0-24 [7]: 21300 ng·h/mL; Cmax [7]: 1179 ng/mL; RAUCtau [7]: 2.4 and 5.3; RCmax [7]: 2.0 and 4.0; Tmax [7]: 24 h; RAUCtau (Day 15, 120 mg, n=3, range): 1.2-1.9; RCmax (Day 15, 120 mg, n=3, range): 0.8-2.4; AUC0-24 [8]: 26000 ng·h/mL and 3740 ng·h/mL; Cmax [8]: 1610 ng/mL and 299 ng/mL; RAUCtau [8]: 2.7 and 0.9; RCmax [8]: 2.2 and 1.0; T1/2 [8]: 29.0 h and 10.3 h; Tmax [8]: (2, 2) hr; AUC0-24 [9]: 41300 ng·h/mL; Cmax [9]: 2930 ng/mL; RAUCtau [9]: 8.0 and 1.55; RCmax [9]: 10.5 and 1.57; T1/2 [9]: 11.7 h; Tmax [9]: 1 h; RAUCtau (Day 15, 400 bid mg, n=1): 3.76; RCmax (Day 15, 400 bid mg, n=1): 2.53; accumulation (QD administration): ~2 fold; variability of pharmacokinetic parameters (human subjects): Moderate to high inter-and intra-subject variability; dose dependence of Cmax and AUC (human subjects): Dose-dependent Cmax and AUC; dose dependence of Cmax and AUC [10]: generally dose-dependent Cmax and AUC; accumulation in AUC at steady state (human subjects, oral tablets): approximately 2 fold; t1/2 (rate of elimination) (human subjects, oral tablets): Moderate rate of elimination (t1/2 10-25 hours); variability of pharmacokinetic parameters [10]: moderate inter-subject variability; AUC(0-t) (human, plasma, oral, 10 mg, Day 1, 10 mg, n=1, read-out: AUC0-24): 622 ng·h/mL; Cmax (human, plasma, oral, 10 mg, Day 1, 10 mg, n=1, read-out: Cmax): 58 ng/mL; half-life (human, plasma, oral, 10 mg, Day 1, 10 mg, n=1): 16.1 h; Tmax (human, plasma, oral, 10 mg, Day 1, 10 mg, n=1, read-out: Tmax): 4 h; AUC(0-t) (human, plasma, oral, 10 mg, Day 15, 10 mg, n=1, read-out: AUC0-24): 912 ng·h/mL; Cmax (human, plasma, oral, 10 mg, Day 15, 10 mg, n=1, read-out: Cmax): 74 ng/mL; Tmax (human, plasma, oral, 10 mg, Day 15, 10 mg, n=1, read-out: Tmax): 4 h; AUC(0-t) (human, plasma, oral, 10 mg, steady state, 10 QD mg, n=1, cancer patients, read-out: AUC0-24h): 912 ng·h/mL; Cmax (human, plasma, oral, 10 mg, steady state, 10 QD mg, n=1, cancer patients, read-out: Cmax): 74 ng/mL; Tmax (human, plasma, oral, 10 mg, steady state, 10 QD mg, n=1, cancer patients, read-out: Tmax): 4 h; AUC(0-t) (human, plasma, oral, 20 mg, Day 1, 20 mg, n=1, read-out: AUC0-24): 1480 ng·h/mL; Cmax (human, plasma, oral, 20 mg, Day 1, 20 mg, n=1, read-out: Cmax): 101 ng/mL; half-life (human, plasma, oral, 20 mg, Day 1, 20 mg, n=1): 13.7 h; Tmax (human, plasma, oral, 20 mg, Day 1, 20 mg, n=1, read-out: Tmax): 8 h; AUC(0-t) (human, plasma, oral, 20 mg, Day 15, 20 mg, n=1, read-out: AUC0-24): 3160 ng·h/mL; Cmax (human, plasma, oral, 20 mg, Day 15, 20 mg, n=1, read-out: Cmax): 149 ng/mL; half-life (human, plasma, oral, 20 mg, Day 15, 20 mg, n=1): 127 h; Tmax (human, plasma, oral, 20 mg, Day 15, 20 mg, n=1, read-out: Tmax): 8 h; AUC(0-t) (human, plasma, oral, 20 mg, steady state, 20 QD mg, n=1, cancer patients, read-out: AUC0-24h): 3160 ng·h/mL; Cmax (human, plasma, oral, 20 mg, steady state, 20 QD mg, n=1, cancer patients, read-out: Cmax): 149 ng/mL; Tmax (human, plasma, oral, 20 mg, steady state, 20 QD mg, n=1, cancer patients, read-out: Tmax): 8 h; half-life (human, plasma, oral, 40 mg, Day 1, 40 mg, individual subjects): 18.2 h; AUC(0-t) (human, plasma, oral, 40 mg, Day 1, 40 mg, n=2, mean, read-out: AUC0-24): 2670 ng·h/mL; Cmax (human, plasma, oral, 40 mg, Day 1, 40 mg, n=2, mean, read-out: Cmax): 192 ng/mL; half-life (human, plasma, oral, 40 mg, Day 1, 40 mg, n=2, mean): 17.9 h; Tmax (human, plasma, oral, 40 mg, Day 1, 40 mg, n=2, mean, read-out: Tmax): 5 h; Tmax (human, plasma, oral, 40 mg, Day 15, 40 mg, individual subjects, read-out: Tmax): 4 h; AUC(0-t) (human, plasma, oral, 40 mg, Day 15, 40 mg, n=2, mean, read-out: AUC0-24): 5890 ng·h/mL
